# What was measured:
# [1] = system: bile duct ligation cholestasis; experiment: Bile duct ligated (BDL) rat model of cholestasis; assay type: in vivo, CD1 rats
# Protocol: The subjects for the study were CD1 male rats (8 weeks of age, 200-225 g). Rats underwent BDL surgery, where the extrahepatic biliary tract was tightly ligated twice with sutures, then cut between the two ligations. A sham group (N=5/group) was also included in a subset of the studies described. […] The Vehicle was a solution of 0.5% (w/v) CMC and 0.05% (v/v) Tween-80 in water. Powdered 25HC3 S was constituted into the Vehicle solution to result in drug concentrations of 0.833 to 5 mg/mL. The suspensions were homogenized for approximately 5 minutes being combined, with 10 second breaks every 30-40 seconds and swirled before dosing to maintain homogeneity. The formulated test article was prepared weekly and kept at room temperature. […] were divided into treatment groups (N=8-10/group) and dosed daily or every 3 days for 9 days by oral gavage. 5, 10, 30 or 60 mg/kg 25HC3S or Vehicle was given starting one day (Day 1) after BDL surgery. On Day 10, serum was collected after an overnight fast and measured for serum biochemistry.
# [2] = Single SC or IM injection PK study in rats; assay type: in vivo, Sprague Dawley rats
# Protocol: The subjects for the study were 15 male Sprague Dawley rats (8-11 weeks of age; 280-327 g at time of dosing). […] All animals were in healthy condition and admitted to the study.
# The Vehicle was a solution of 3% (w/v) polyethylene glycol 3350, 0.3% (v/v) polysorbate 80, 0.7% (w/v) sodium chloride, 0.15% (w/v) L-methionine, 10 mM sodium phosphate buffer at pH 7.4 in water. 25HC3S was mixed into the Vehicle solution to result in drug concentrations of 25, 5 and 10 mg/mL. […] The formulated test article was used within 24 hours of constitution.
# Each rat received a single IM or SC injection (2 doses) (N=5/group). The dose level for the IM injection was 25 mg/kg was administered in a dose volume of 1 mL/kg. There were two dose groups for the SC injection route. The dose levels for the SC injections were 25 and 50 mg/kg with a dose volume of […] for both groups (drug concentrations were 5 and 10 mg/mL, respectively). Whole blood samples were collected via the jugular vein or the submandibular vein at pre-dose, 0.5, 1, 2, 4, 8, 12, 24, and 32 hours (h) post dose from each rat; however, the last blood collection may have been collected by terminal cardiac puncture with the animals deeply anesthetized by isoflurane. Blood samples were placed into tubes containing K2EDTA. The blood was gently mixed to assure distribution of the anti-coagulant and the resulting plasma samples underwent analyses to quantify 25HC3 S levels. […] Assessments included, but were not limited to, assessment of activity, posture, respiration, emesis, seizure, hydration status, injection site assessment and overall body condition.
# [3] = Ease of dispersion: appearance of suspension and sedimentation (visual inspection); assay type: physicochemical; conditions: 25 mg/mL in Vehicle PEG 3350 (without L-Methionine)
# Protocol: Two lots of 25HC3S sodium salt (Lot #A and Lot #B) were used. Lot #B was delumped through a 20 mesh screen. The drug substance was either used directly or further jet-milled, prior to the preparation of suspensions for the studies. A third lot of 25HC3 S sodium salt (Lot #C) was jet-milled first and then used directly or further passed through a 20 mesh screen prior to the studies. More than 10 vehicles were screened. Four mixing methods were evaluated: manual shaking (Mixing Method 1), manual shaking followed by sonication (Mixing Method 2) and homogenization with a sonic probe (Mixing Method 3) as well as mechanical shaking horizontally in a flat bed shaker (Mixing Method 4). Studies #1 to 13 combined vehicle screening, mixing methods and syringeability evaluation. The effect of drug concentrations on the syringeability was evaluated (Studies #10 and 11).
# Weigh approximately 10 to 100 mg each of 25HC3S into 2 mL vials. Add to each vial, 1 mL of vehicle. A total of 3 mixing methods were used to prepare the suspensions. Mixing Method 1: Each vial was manually shaken for 15 to 45 times. The suspension was inspected visually for sedimentation after stored at room temperature (RT) for one minute. […] Mixing Method 2: Each vial was manually shaken 30 times followed by sonication for 3 or 6 minutes for syringeability study. […]
# [4] = daily oral 10 or 30 mg/kg (follow-up study)
smiles,measurement,setting,value
"C[C@H](CCCC(C)(C)O)[C@H]1CC[C@H]2[C@@H]3CC=C4C[C@@H](OS(=O)(=O)[O-])CC[C@]4(C)[C@H]3CC[C@]12C.[Na+] [Formulation 25HC3S, 5-cholesten-3, 25-diol, 3-sulfate]",body weight and other serum chemistry measures,[1]; daily oral 5 mg/kg,little or no differences
same,Body temperature on Day 9,"[1]; daily oral 5 mg/kg, vs Vehicle",significantly improved
same,spleen-to-body weight ratio,"[1]; daily oral 5 mg/kg, vs Vehicle",significantly improved
same,body weight gain after surgery,[1]; daily oral 30 mg/kg (pilot study),significantly improved
same,body weight gain after surgery,[1]; daily oral 60 mg/kg (pilot study),modest increases
same,liver histological analyses,[1]; [4],no differences
same,serum liver enzymes,[1]; [4],trends of decrease
same,"Serum total, direct and indirect bilirubin levels","[1]; daily oral 10 or 30 mg/kg, vs Vehicle (follow-up study)",significantly reduced
same,"serum biochemistry analytes, including serum bilirubin",[1]; daily oral 30 or 60 mg/kg (pilot study),No significant differences
same,"body weight, organ-to-bodyweight ratios or serum clinical chemistry","[1]; oral every three days (Days 1, 4, 7), 10 or 30 mg/kg",no significant differences
same,mean maximum concentration,[2]; IM 25 mg/kg,101.9 (±17.1) ng/mL
same,mean time to maximum plasma drug concentration,[2]; IM 25 mg/kg,10.4 (±2.2) hr
same,mean maximum concentration,[2]; SC 25 mg/kg,127.1 (±93.8) ng/mL
same,mean time to maximum plasma drug concentration,[2]; SC 25 mg/kg,7.6 (±4.6) hrs
same,mean concentration at 32 h,[2]; SC 50 mg/kg,34.2 (±13.8) ng/mL
same,mean maximum concentration,[2]; SC 50 mg/kg,76 (±15.9) ng/mL
same,mean time to maximum plasma drug concentration,[2]; SC 50 mg/kg,7.2 (±1.8) hrs
same,clinical signs,[2]; single IM or SC injection,no observable clinical signs
same,dispersion,[3]; flat bed shaker 100 rpm up to 50 minutes (Study #12),did not disperse well
same,dispersion,[3]; flat bed shaker 200 rpm up to 45 minutes (Study #13),dispersed well

# — US20220175798A1, “COMPOSITIONS COMPRISING OXYGENATED CHOLESTEROL SULFATE AND AT LEAST ONE OF POLYALKYLENE GLYCOL, CARBOXYMETHYL CELLULOSE AND POLYOXYLGLYCERIDE” (Durect Corporation, priority 2016, published 2022)
